Results reported in the OPERA property sets (Mansouri et al. 2018).

Row | Compound | boiling point [°C] | log10 Koc (L/kg) | melting point [°C] | ready biodegradability | log10 vapour pressure (mmHg) | log10 Henry constant (atm·m³/mol) | log10 Koa | log10 biodegradation half-life (days)
1 | CCc1ccc2ccccc2n1 | 246 |  |  |  |  |  |  | 
2 | O=C(O)c1cc([N+](=O)[O-])cc([N+](=O)[O-])c1 |  | 1.53 | 205 | not readily biodegradable |  |  |  | 
3 | CCOC(=O)CC(SP(=O)(OC)OC)C(=O)OCC (stereo not drawn) |  |  |  |  | -5.01 |  |  | 
4 | CC1=CC(=O)OC1=O | 214 |  | 7.5 |  |  |  |  | 
5 | CCCC(C)C(C)=O (stereo not drawn) | 144 |  |  |  |  |  |  | 
6 | Cc1ccc(N=C=O)cc1N=C=O | 251 |  | 20.5 | not readily biodegradable | -2.1 |  |  | 
7 | CC1(c2ccccc2)OC(C(=O)O)=CC1=O (stereo not drawn) |  |  | 176 |  |  |  |  | 
8 | CCC(CC)COC(=O)CCCCCCCC(=O)OCC(CC)CC |  |  | -45 |  |  |  |  | 
9 | CC(C)C(C)(C)C(C)(C)C | 166 |  | -36.4 |  |  |  |  | 
10 | CCCCCCCCCCCCCCCCCCCCCCCCCCO |  |  | 80 | readily biodegradable |  |  |  | 
11 | CCCOC(=O)C(C)C | 135 |  |  |  | 0.924 |  |  | 
12 | O=[N+]([O-])CC(O)C(Cl)(Cl)Cl (stereo not drawn) |  |  | 45.5 |  |  |  |  | 
13 | CCCCOC(=O)CCC(C)=O | 238 |  |  |  |  |  |  | 
14 | O=CN(O)CC(=O)O |  |  | 120 |  |  |  |  | 
15 | CCOC(=O)C(C#N)=Cc1ccccc1 |  |  | 51 |  |  |  |  | 
16 | CCCCCCCC/C=C\CCCCCCCCCCCC(N)=O |  |  | 77.5 | readily biodegradable |  |  |  | 
17 | O=Cc1ccc(O)c(O)c1O |  |  | 160 |  |  |  |  | 
18 | ClC/C=C/CCl | 155 |  | -14.2 |  | 0.574 |  |  | 
19 | CC(Br)CCl (stereo not drawn) | 118 |  |  |  |  |  |  | 
20 | C=C(C(=O)O)C(F)(F)F |  |  | 51.5 |  |  |  |  | 
21 | C=Cc1ccccc1C=C |  |  |  | not readily biodegradable |  |  |  | 
22 | CC(C)CCC(=O)c1ccoc1 | 196 |  |  |  |  |  |  | 

Row | Compound | boiling point [°C] | log10 Koc (L/kg) | melting point [°C] | ready biodegradability | log10 vapour pressure (mmHg) | log10 Henry constant (atm·m³/mol) | log10 Koa | log10 biodegradation half-life (days)
23 | CCCCCCCCCCCCCCCCCC(=O)NCCNC(=O)CCCCCCCCCCCCCCCCC |  |  |  | not readily biodegradable |  |  |  | 
24 | CC1CCCCC1 | 101 |  | -127 |  | 1.66 | -0.367 | 3.03 | 0.602
25 | CNc1ccc2oc(C[C@@H]3OC4(CC[C@@H]3C)O[C@H](C(C)C(=O)c3ccc[nH]3)[C@H](C)C[C@H]4C)nc2c1C(=O)O (stereo partly drawn) |  |  | 182 |  |  |  |  | 
26 | O=C(OCc1ccco1)c1ccco1 |  |  | 27.5 |  |  |  |  | 
27 | CCCCCCCCCCCCCCCCCC(=O)OCCOC(=O)CCCCCCCCCCCCCCCCC |  |  | 79 | readily biodegradable |  |  |  | 
28 | c1ccc2sncc2c1 | 220 |  | 38 |  |  |  |  | 
29 | O=C1OS(=O)(=O)c2ccccc21 |  |  | 130 |  |  |  |  | 
30 | CC(C)(C)c1cccc(O)c1 | 240 |  | 42.3 | not readily biodegradable | -1.7 |  |  | 
31 | Cc1ccc(O)c(Cl)c1C | 188 |  | 27 |  |  |  |  | 
32 | OCCCOCCCO |  |  |  | not readily biodegradable |  |  |  | 
33 | CC[N+](CC)(CC)CCOC(=O)C(C1CCCC1)C1CCCC1.[Br-] |  |  | 186 |  |  |  |  | 
34 | COc1c(C)c2c(c(O)c1C/C=C(\C)CCC(=O)O)C(=O)OC2 |  |  | 141 |  |  |  |  | 
35 | Oc1ccccc1-c1nc2ccccc2o1 | 338 |  | 124 |  |  |  |  | 
36 | C[SiH]1O[SiH](C)O[SiH](C)O[SiH](C)O1 (stereo not drawn) | 134 |  | -65 |  |  |  |  | 
37 | O=P([O-])([O-])O[C@@H]1[C@@H](O)[C@H](O)[C@@H](O)[C@H](O)[C@@H]1O |  |  | 195 |  |  |  |  | 
38 | CCCCN1CCCC1 | 154 |  |  | readily biodegradable |  |  |  | 
39 | Cc1nc(=O)c2ccccc2[nH]1 |  |  | 232 |  |  |  |  | 
40 | CCOC(=O)c1ccncc1 | 220 |  | 23 |  |  |  |  | 
41 | Nc1ccc(C(=O)N[C@@H](CCC(=O)O)C(=O)O)cc1 |  |  | 173 |  |  |  |  | 
42 | COC(=O)CCC(C)=O | 196 |  |  |  |  |  |  | 
43 | O=Nc1ccccc1 |  |  | 68.5 |  |  |  |  | 
44 | CCOC(C)=O | 77.1 |  | -83.6 | readily biodegradable | 1.97 | -3.87 | 2.7 | 

Row | Compound | boiling point [°C] | log10 Koc (L/kg) | melting point [°C] | ready biodegradability | log10 vapour pressure (mmHg) | log10 Henry constant (atm·m³/mol) | log10 Koa | log10 biodegradation half-life (days)
45 | FC(F)(F)C(F)(F)C(F)(F)C(F)(F)C(F)(F)C(F)(F)F | 56.6 |  | -87.1 |  | 2.34 |  |  | 
46 | O=[N+]([O-])c1ccc(Oc2ccc(Cl)cc2Cl)cc1 |  | 4 | 70 | not readily biodegradable |  |  |  | 
47 | O=C1C=C(Cl)C(=O)O1 | 196 |  | 33 |  |  |  |  | 
48 | O=C(O)[C@H]1O[C@@H](OCC(Cl)(Cl)Cl)[C@H](O)[C@@H](O)[C@@H]1O |  |  | 142 |  |  |  |  | 
49 | O=C(O)C=CC=Cc1ccc2c(c1)OCO2 |  |  | 215 |  |  |  |  | 
50 | CCCSc1ccc2[nH]c(NC(=O)OC)nc2c1 |  |  | 209 |  |  |  |  | 
51 | CCCCCCCCCCCCI | 298 |  | 0.3 |  | -1.85 |  |  | 
52 | CC(=O)c1ccc(O)c(O)c1 |  |  | 116 |  |  |  |  | 
53 | N#Cc1ccc2ccccc2n1 |  |  | 95 |  |  |  |  | 
54 | CCc1nn(C)c(C(=O)NCc2ccc(C(C)(C)C)cc2)c1Cl |  |  | 61.5 |  |  |  |  | 
55 | CC(=O)[C@@]1(C)CC[C@H]2[C@@H]3C=C(C)C4=CC(=O)CC[C@]4(C)[C@H]3CC[C@@]21C |  |  | 144 |  |  |  |  | 
56 | O=[N+]([O-])c1ccc(Cl)cc1 | 242 |  | 83.5 | not readily biodegradable | -1.66 | -5.31 |  | 
57 | Cc1ccccc1Oc1cccnn1 |  |  | 78 |  |  |  |  | 
58 | CCCSC | 95.6 |  | -113 |  | 1.71 |  |  | 
59 | CCCl | 12.3 |  | -139 | not readily biodegradable | 3 | -1.95 |  | 
60 | O=c1oc2ccccc2c(O)c1C1CC(c2ccc(-c3ccccc3)cc2)Cc2ccccc21 (stereo not drawn) |  |  | 216 |  |  |  |  | 
61 | C/C=C\C(C)(C)C | 80.4 |  | -135 |  |  |  |  | 
62 | CN(C)CC(=O)O |  |  | 186 |  |  |  |  | 
63 | C=C(C)Cn1c(N)cc(=O)n(C)c1=O |  |  | 175 |  |  |  |  | 
64 | Oc1cccc(F)c1 | 178 |  | 13.7 |  |  |  |  | 
65 | Cc1ccc(C)c2c1C(=O)c1ccccc1C2=O |  |  | 140 |  |  |  |  | 
66 | CCC(=O)c1ccc2ccccc2c1 | 313 |  | 60 |  |  |  |  | 
